# Tests used:
# Format in all cases: physicochemical
# bevacizumab = experiment: Stability of dialysed, pre-stressed bevacizumab alone and with AMP: percentage of monomers by AFFF-MALS; details: for percentage of monomers: pH 7.0
# Procedure: A 50 mM phosphate buffer pH 7.0 was used. The buffer choice was based on a pH range and buffer capacity that is tolerated physiologically and that is acceptable for the stability of antibodies. […] Samples were analyzed directly after preparation (t0) and after 7, 14 and 28 days. The aggregation state of the antibodies was measured by multi-angle light scattering (MALS) after separation by asymmetrical flow field-flow fractionation (AFFF). […] Data were collected and analyzed with Astra software (Wyatt Technology Europe GmbH, Dernbach, Germany). The aggregation state was expressed as the percentage of monomers versus time.
# Avastin® (bevacizumab) [1] = experiment: Effect of AMP on the unmodified commercial bevacizumab formulation (Avastin®): monomers by AFFF-MALS; details: 40° C.; for stabilization of the antibody (increase in the amount of monomers) versus Avastin® alone: p<0.05
# Procedure: (§1) All samples were stored at a temperature of 40° C. during 28 days. Samples were analyzed directly after preparation (t0) and after 7, 14 and 28 days. The aggregation state of the antibodies was measured by multi-angle light scattering (MALS) after separation by asymmetrical flow field-flow fractionation (AFFF). […] Data were collected and analyzed with Astra software (Wyatt Technology Europe GmbH, Dernbach, Germany). The aggregation state was expressed as the percentage of monomers versus time.
# All samples are stored at a temperature of 40° C. for 28 days and stability is measured as described in Example 1 and compared to a sample of Avastin® alone stored under the same conditions.
# Avastin® (bevacizumab) [2] = experiment: Stability of pre-stressed Avastin® dialysed into PBS pH 7.0, with ATP or GMP: monomers by AFFF-MALS; details: for stabilization of Avastin® across molar ratios: ratios 1:1, 1:10, 1:100, 40° C.
# Procedure: as §1, with “Samples were analyzed directly after preparation (t0) and after 7, 14 and 28 days.” left out
# After pre-stressing, Avastin® samples are combined with either ATP or GMP at three Avastin®: compound of formula (I) molar ratios (1:1, 1:10 and 1:100). All samples are stored at a temperature of 40° C. for 28 days and stability is measured as described in Example 1 and compared to a sample of Avastin® alone stored under the same conditions. For GMP, a dilution of GMP was made in PBS pH 7.0 and pH was re-adjusted to pH 7.0 before the combination with Avastin® to prevent the risk of higher order aggregates caused by the addition of NaOH directly to the antibody formulation.
# [3] = molar ratio 1:1, 1 day at 40° C. (t1)
# [4] = molar ratio 1:10, 1 day at 40° C. (t1)
# [5] = molar ratio 1:100, 1 day at 40° C. (t1)
SMILES,"increase in the proportion of the antibody present in the monomer form (bevacizumab; AMP added to a liquid formulation containing already formed antibody aggregates, general statement)","percentage of monomers (bevacizumab; bevacizumab 25 mg/ml with AMP (read as molar ratio 1:153), 14 days at 40° C., n=3)","percentage of monomers (bevacizumab; bevacizumab:AMP molar ratio 1:1.53, 14 days at 40° C.)","percentage of monomers (bevacizumab; bevacizumab:AMP molar ratio 1:1.53, 28 days at 40° C., n=3)","percentage of monomers (bevacizumab; bevacizumab:AMP molar ratio 1:15.3, 14 days at 40° C.)","percentage of monomers (bevacizumab; bevacizumab:AMP molar ratio 1:15.3, 28 days at 40° C., n=3)","percentage of monomers (bevacizumab; bevacizumab:AMP molar ratio 1:153, 28 days at 40° C., n=3)",stabilization compared to the other molar ratios (Avastin® (bevacizumab) [1]; Avastin®:AMP 1:10 versus 1:1 and 1:100),"stabilization of the antibody (increase in the amount of monomers) versus Avastin® alone (Avastin® (bevacizumab) [1]; Avastin®:AMP molar ratio 1:10, t1, t14 and t28)","stabilization of the antibody (increase in the amount of monomers) versus Avastin® alone (Avastin® (bevacizumab) [1]; Avastin®:AMP molar ratio 1:100, only t14 and t28)",effect on antibody stability versus Avastin® alone (Avastin® (bevacizumab) [2]; [3]),"effect on antibody stability versus Avastin® alone (Avastin® (bevacizumab) [2]; molar ratio 1:1, 28 days at 40° C. (t28))",effect on antibody stability versus Avastin® alone (Avastin® (bevacizumab) [2]; [4]),"effect on antibody stability versus Avastin® alone (Avastin® (bevacizumab) [2]; molar ratio 1:10, 28 days at 40° C. (t28))",effect on antibody stability versus Avastin® alone (Avastin® (bevacizumab) [2]; [5]),"effect on antibody stability versus Avastin® alone (Avastin® (bevacizumab) [2]; molar ratio 1:100, 28 days at 40° C. (t28))","higher order aggregates (Avastin® (bevacizumab) [2]; molar ratio 1:100, 28 days at 40° C., probably due to pH adjustment)",stabilization of Avastin® across molar ratios (Avastin® (bevacizumab) [2]; up to 14 days),"stabilizing properties in comparison of excipients (Avastin® (bevacizumab) [2]; after 28 days of storage at 40° C., ratio not specified)","stabilization of Avastin® across molar ratios (Avastin® (bevacizumab) [2]; all timepoints (1:100 most effective, then 1:10, then 1:1))"
"Nc1ncnc2c1ncn2[C@@H]1O[C@H](COP(=O)(O)O)[C@@H](O)[C@H]1O [AMP, adenosine 5′-monophosphate]",10% to 30,higher than 94%,higher than 80%,higher than 76%,higher than 80%,higher than 76%,around 90%,better stabilization,significant stabilization,significant stabilization,–,–,–,–,–,–,–,–,–,–
"Nc1ncnc2c1ncn2[C@@H]1O[C@H](COP(=O)(O)OP(=O)(O)OP(=O)(O)O)[C@@H](O)[C@H]1O [ATP, adenosine 5′-triphosphate]",–,–,–,–,–,–,–,–,–,–,stabilizing effect,no significant difference,stabilizing effect,no significant difference,stabilizing effect,significant stabilization,small percentage of higher order aggregates,concentration dependent stabilization,–,–
"Nc1nc2c(ncn2[C@@H]2O[C@H](COP(=O)(O)O)[C@@H](O)[C@H]2O)c(=O)[nH]1 [GMP, guanosine 5′-monophosphate]",–,–,–,–,–,–,–,–,–,–,destabilizing,–,destabilizing,–,ability to stabilize the antibody,–,–,–,most distinct stabilizing properties,concentration dependent stabilization
